These results are taken from patent publication US12435083B2, “Cyclopropyl-(hetero)aryl-substituted ethylsulphonyl-pyridine derivatives” (BOEHRINGER INGELHEIM VETMEDICA GMBH, priority 2021, dated 2025).

The structures appear in SMILES notation. Where two headings read alike, the source gives them in different places. Some results are limits rather than exact numbers.

Assay [1] concerns adult Rhipicephalus sanguineus ticks. The assay is described as follows: Contact activity against adult Rhipicephalus sanguineus (coated vial, mortality at 48 h). A digest of the protocol: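 Compound in acetone/0.02% Triton X-100 coated onto glass vial walls and cap filter paper; after drying, ten adult ticks added per vial. Held at 24° C, 95% relative humidity, 12 h light/dark cycle. Mortality scored visually at 48 hours; EC50 derived from a dose-response series.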

Assay [2] deals with adult Ctenocephalides felis fleas. In words: Ingestion activity (flea membrane feeding, blood feeding) against adult Ctenocephalides felis.
Assay [3] concerns nymphs of Dermacentor variabilis ticks. In words: Oral rat-tick efficacy against nymphs of Dermacentor variabilis ticks. The assay is classed as in vivo. Particulars: rats, oral gavage 10 mg/kg on Day 0, tick count on Day 3. The procedure: Example 10: Comparison of Oral Rat-Tick Efficacy Data for Selected Specific Compounds of Formula (I) Against Nymphs of Dermacentor variabilis Ticks
On Day −1, rats were sedated, fitted with an Elizabethan collar, and infested with approximately 35 nymphal stage D. variabilis ticks. On Day 0, each rat was treated via oral gavage with the appropriate formulation of placebo, positive control, or test compound at the appropriate dose. On Day 3, all rats were euthanized, and ticks were removed, counted, and disposed of. In Table 2 efficacy is expressed in % mortality compared to negative controls containing compound vehicle only.

Assay [4] relates to Aedes aegypti L1 larvae. The assay is described as follows: Activity against larvae of Aedes aegypti (L1 larvae, 384-well, image-based mortality). Particulars: 48 h at 27° C., 384-well, read-out: EC50 (percentage of mortality, A. aegypti L1 larvae). The procedure: Example 3: Screening Method to Test Activity of Compounds of Formula (I) Against Larvae of Aedes aegypti
Eight A. aegypti L1 larvae in a total volume of 64 μL water were added to 384-well microplates containing compounds formulated in 100% DMSO. The plates were incubated for 48 h at 27° C. Individual well images were acquired and analyzed using a pipeline to quantitatively assess the amount of larvae biomass accumulating at the bottom of the well. The efficacy of a compound at a given dose is expressed as “percentage of mortality” and determined by comparison to average biomass descriptors of positive and negative control wells containing 1.0 μM Fipronil or DMSO only, respectively. Dose response assay were conducted to determine an EC50 value.

For assay [5], the system named is adult Ctenocephalides felis fleas. In words: Contact activity against adult Ctenocephalides felis (treated surface, motility by machine vision, 24 h). Particulars: treated surface, 24h, read-out: EC80 (% motility reduction, adult C. felis, contact). From the text:
Example 7: Screening Method to Test Contact Activity of Compounds of Formula (I) Against Adult Ctenocephalides felis

In assay [6] the test system is Spodoptera litura 2nd-instar larvae. The assay is described as follows: Insecticidal test on Spodoptera litura (cabbage leaf dip). The following applies: foliar, 192 h, 8 days after inoculation, read-out: activity level (corrected mortality rate), Spodoptera litura. How it is done:
Example 11: Insecticidal Test on Spodoptera litura
The compounds of formula (I) of the present invention or salts thereof were separately dispersed in water and diluted to 500 ppm. Cabbage leaves were dipped in the dispersion for about 30 seconds. After air dried, the leaves were placed in a plastic Petri dish with a diameter of 9 cm and inoculated with ten 2nd-instar larvae of Spodoptera litura, after which the dish was closed and then allowed to stand in a room at 25° C. 8 days after the inoculation, the numbers of the dead and alive insects were counted. The corrected mortality rate was calculated according to the following formula and the insecticidal activity was evaluated according to the following criteria. Corrected mortality rate (%)=100×(Survival rate in an untreated plot−Survival rate in a treated plot)/Survival rate in an untreated plot • A: the corrected mortality rate is 100% • B: the corrected mortality rate is 90 to 99% • C: the corrected mortality rate is 80 to 89% • D: the corrected mortality rate is 50 to 79%

Assay [7] concerns Plutella xylostella. The assay is described as follows: Insecticidal test on Plutella xylostella (Chinese cabbage seedling dip). The following applies: 144 h, 500 ppm, seedling dip, 6 days after dip treatment, read-out: activity level (corrected mortality rate), Plutella xylostella. A digest of the protocol:
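Compounds dispersed in water at 500 ppm; Chinese cabbage seedlings bearing eggs laid by released adults over 2 days were dipped ~30 s, air-dried and kept at 25° C. Dead and live insects counted 6 days later; corrected mortality versus untreated plot scored A (100%), B (90–99%), C (80–89%), D (50–79%).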

The subject of assay [8] is Laodelphax striatellus 3rd-instar nymphs. The assay is described as follows: Insecticidal test on Laodelphax striatellus (rice seedling dip). The following applies: 192 h, 500 ppm, seedling dip, 8 days after inoculation, read-out: activity level (corrected mortality rate), Laodelphax striatellus.
Assay [9] deals with Myzus persicae. The assay is described as follows: Insecticidal test on Myzus persicae (foliar application on potted Chinese cabbage). Particulars: 144 h, 500 ppm, foliar application, 6 days after application, read-out: control efficacy level (control rate), Myzus persicae.
[10] abbreviates: contact assay, >100 μM = not active at the top concentration, read-out: R. sanguineus contact activity EC50.

For `CCS(=O)(=O)c1cc(-c2ccc(C3CC3)cc2)cnc1-c1nc2cc(C(F)(F)C(F)(F)F)cnc2n1C` [compound 44], in assay [1] (setting [10]), the concentration giving a half-maximal response (EC50) lay in the range of 10 to 100 µM. Moreover, the “C. felis membrane feeding (ingestion/blood feeding) activity EC80” value in assay [2] (flea membrane feeding (ingestion, blood feeding) assay, EC80) lay within 1 to 10 µM. Further, the “Observed efficacy (% mortality compared to negative controls)” value in assay [3] is on record as over 95%.

For the compound `CCS(=O)(=O)c1cc(-c2ccc(C3(C#N)CC3)cc2)cnc1-c1nc2cc(C(F)(F)C(F)(F)F)ncc2n1C` [Compound 115, 1-[4-[5-(ethanesulfonyl)-6-[3-methyl-6-(1,1,2,2,2-pentafluoroethyl)imidazo[4,5-c]pyridin-2-yl]pyridin-3-yl]phenyl]cyclopropane-1-carbonitrile], the EC50 in [4] is under 0.04 µM; in assay [1] (Rhipicephalus sanguineus, 48 hours post-treatment, coated vial, read-out: EC50 (percentage mortality, adult R. sanguineus, contact)), 10 to 100 µM; in [1] (Rhipicephalus sanguineus, contact assay, >100 μM = not active at the top concentration, read-out: R. sanguineus contact activity EC50), 10 to 100 µM. Further, the EC80 was under 1 µM in [2] (Ctenocephalides felis, 24 h, flea membrane feeding (ingestion, blood feeding) assay, EC80, read-out: C. felis membrane feeding (ingestion/blood feeding) activity EC80); under 1 µM in [2] (Ctenocephalides felis, bovine blood, 24h post treatment, read-out: EC80 (% motility reduction, adult C. felis, ingestion via membrane feeding)); under 1 µM in [5]. Besides, the mortality at 500 ppm in assay [6], in assay [7] and in assay [8] was 100% in each case. Besides, the pest or weed control at 500 ppm in assay [9] was found to be 100%.

For `CCS(=O)(=O)c1cc(-c2ccc(C3CC3)cc2)cnc1-c1nc2cc(C(F)(F)F)cnc2n1C` [Compound 41, 5-(4-cyclopropylphenyl)-3-(ethanesulfonyl)-2-[3-methyl-6-(trifluoromethyl)imidazo[4,5-b]pyridin-2-yl]pyridine], the EC50 in assay [4] is under 0.04 µM. For the same compound, the EC80 in assay [5] fell in the range of 1 to 10 µM. Further, the mortality at 500 ppm in assay [6], in [7] and in assay [8] was 100% each time. Also, the pest or weed control at 500 ppm in assay [9] is 100%.

Take `CCS(=O)(=O)c1cc(-c2ccc(C3(C#N)CC3)cc2)cnc1-c1nc2cc(C(F)(F)F)cn(CC(F)F)c-2c1F` [compound 67]: the “Observed efficacy (% mortality compared to negative controls)” value in [3] is reported as over 95%.

Consider `CCS(=O)(=O)c1cc(-c2ccc(C3(F)CC3)cc2)cnc1-c1nc2cc(C(F)(F)C(F)(F)F)nnc2n1C` [compound 19], for which the EC50 in assay [1] (setting [10]) lay within 10 to 100 µM. For the same compound, the EC80 in [2] (flea membrane feeding (ingestion, blood feeding) assay, EC80, read-out: C. felis membrane feeding (ingestion/blood feeding) activity EC80) is under 1 µM. For the same compound, the “Observed efficacy (% mortality compared to negative controls)” value in [3] was over 95%.
